Test results published in US11998515B1, “Enhancement of curcumin plasma levels using eucalyptol co-administration” (KING FAISAL UNIVERSITY, priority 2023, dated 2024).

Assay: Curcumin concentration in blood of rats after ten days of once-daily oral dosing, determined by HPLC/DAD
Type: in vivo
Description: This experiment involved the use of 6 groups of rats (n=6):
Group 1: is the control group, where the animals received a solution of 0.5% carboxy methyl cellulose (CMC) in normal saline (formulation vehicle) once daily orally for ten days.
Group 2: Rats were given Eucalyptol (20 mg/kg) solubilized in 0.5% carboxy methyl cellulose (CMC) in normal saline once a day orally for ten days.
Group 3: Rats were administered curcumin (10 mg/kg) solubilized in 0.5% carboxy methyl cellulose (CMC) in normal saline once daily orally for ten days.
Groups 4, 5 and 6: Rats were given combinations of curcumin (10 mg/kg) with Eucalyptol (5 mg/kg, group 4), (10 mg/kg group 5), and (20 mg/kg, group 6), solubilized in 0.5% carboxy methyl cellulose (CMC) in normal saline orally once daily for ten days.
After the last dose on day 10, blood samples were withdrawn from animals after 0.5, 1, 2, 4, 6, 12 and 24 hours, and HPLC/DAD techniques determined the concentrations of curcumin.

COc1cc(/C=C/C(=O)CC(=O)/C=C/c2ccc(O)c(OC)c2)ccc1O [curcumin]
time after administration at which curcumin concentration increased in serum (after last dose on day 10, curcumin 10 mg/kg alone): 1 h
time after administration at which curcumin concentration reached the maximum concentration in serum (after last dose on day 10, curcumin 10 mg/kg alone (group 3)): 6 h
